Laboratory results published in ChEMBL document CHEMBL5465560, “Selectivity Literature for EUbOPEN Chemogenomic Library” (2024).

Tests used:
[1] = molecular target: T1, Mitogen-activated protein kinase kinase kinase 5 (Homo sapiens) (UniProt Q99683); assay: Selectivity interaction (KinomeScan (DiscoverX)) EUB0001049a MAP3K5; details: at 1 µM
T1 sequence (whole entry): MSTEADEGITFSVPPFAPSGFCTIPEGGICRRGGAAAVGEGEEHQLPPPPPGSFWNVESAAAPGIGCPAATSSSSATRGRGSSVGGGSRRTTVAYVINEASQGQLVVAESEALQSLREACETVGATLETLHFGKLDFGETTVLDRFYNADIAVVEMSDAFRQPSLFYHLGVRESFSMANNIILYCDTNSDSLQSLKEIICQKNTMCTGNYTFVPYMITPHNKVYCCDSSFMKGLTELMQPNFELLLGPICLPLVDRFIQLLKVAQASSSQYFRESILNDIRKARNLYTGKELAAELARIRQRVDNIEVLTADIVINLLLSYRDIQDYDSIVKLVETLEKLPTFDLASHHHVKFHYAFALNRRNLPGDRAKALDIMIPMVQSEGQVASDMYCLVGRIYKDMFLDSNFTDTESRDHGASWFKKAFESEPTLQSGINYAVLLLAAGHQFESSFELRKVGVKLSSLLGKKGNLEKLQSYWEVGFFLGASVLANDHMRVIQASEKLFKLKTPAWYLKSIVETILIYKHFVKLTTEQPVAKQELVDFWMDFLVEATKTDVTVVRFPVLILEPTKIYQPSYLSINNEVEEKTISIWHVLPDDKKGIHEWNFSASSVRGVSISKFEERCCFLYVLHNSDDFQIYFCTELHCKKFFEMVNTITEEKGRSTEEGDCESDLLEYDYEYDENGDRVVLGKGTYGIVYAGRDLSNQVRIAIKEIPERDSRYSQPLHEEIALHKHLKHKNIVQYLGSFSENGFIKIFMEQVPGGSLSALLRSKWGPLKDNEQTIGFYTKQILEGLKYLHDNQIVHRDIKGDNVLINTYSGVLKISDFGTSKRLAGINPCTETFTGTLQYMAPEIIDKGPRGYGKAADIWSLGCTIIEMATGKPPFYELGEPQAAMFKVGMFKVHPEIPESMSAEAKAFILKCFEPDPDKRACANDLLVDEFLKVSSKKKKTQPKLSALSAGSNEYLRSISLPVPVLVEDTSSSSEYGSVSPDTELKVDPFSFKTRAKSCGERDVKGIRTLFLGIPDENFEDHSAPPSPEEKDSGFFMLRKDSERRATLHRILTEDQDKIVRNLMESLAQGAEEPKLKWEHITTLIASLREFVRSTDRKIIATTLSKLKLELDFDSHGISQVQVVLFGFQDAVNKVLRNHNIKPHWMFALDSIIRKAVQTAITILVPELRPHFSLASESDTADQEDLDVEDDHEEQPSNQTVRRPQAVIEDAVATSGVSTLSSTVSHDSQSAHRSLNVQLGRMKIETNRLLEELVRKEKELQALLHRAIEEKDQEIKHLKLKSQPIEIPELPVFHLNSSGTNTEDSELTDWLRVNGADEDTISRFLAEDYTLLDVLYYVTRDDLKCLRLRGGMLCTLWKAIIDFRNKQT

[2] = molecular target: Citron Rho-interacting kinase (Homo sapiens) (UniProt O14578); assay: Selectivity interaction (KinomeScan (DiscoverX)) EUB0001079a CIT; details: at 1 µM
Sequence of Citron Rho-interacting kinase (Homo sapiens) (O14578 whole entry): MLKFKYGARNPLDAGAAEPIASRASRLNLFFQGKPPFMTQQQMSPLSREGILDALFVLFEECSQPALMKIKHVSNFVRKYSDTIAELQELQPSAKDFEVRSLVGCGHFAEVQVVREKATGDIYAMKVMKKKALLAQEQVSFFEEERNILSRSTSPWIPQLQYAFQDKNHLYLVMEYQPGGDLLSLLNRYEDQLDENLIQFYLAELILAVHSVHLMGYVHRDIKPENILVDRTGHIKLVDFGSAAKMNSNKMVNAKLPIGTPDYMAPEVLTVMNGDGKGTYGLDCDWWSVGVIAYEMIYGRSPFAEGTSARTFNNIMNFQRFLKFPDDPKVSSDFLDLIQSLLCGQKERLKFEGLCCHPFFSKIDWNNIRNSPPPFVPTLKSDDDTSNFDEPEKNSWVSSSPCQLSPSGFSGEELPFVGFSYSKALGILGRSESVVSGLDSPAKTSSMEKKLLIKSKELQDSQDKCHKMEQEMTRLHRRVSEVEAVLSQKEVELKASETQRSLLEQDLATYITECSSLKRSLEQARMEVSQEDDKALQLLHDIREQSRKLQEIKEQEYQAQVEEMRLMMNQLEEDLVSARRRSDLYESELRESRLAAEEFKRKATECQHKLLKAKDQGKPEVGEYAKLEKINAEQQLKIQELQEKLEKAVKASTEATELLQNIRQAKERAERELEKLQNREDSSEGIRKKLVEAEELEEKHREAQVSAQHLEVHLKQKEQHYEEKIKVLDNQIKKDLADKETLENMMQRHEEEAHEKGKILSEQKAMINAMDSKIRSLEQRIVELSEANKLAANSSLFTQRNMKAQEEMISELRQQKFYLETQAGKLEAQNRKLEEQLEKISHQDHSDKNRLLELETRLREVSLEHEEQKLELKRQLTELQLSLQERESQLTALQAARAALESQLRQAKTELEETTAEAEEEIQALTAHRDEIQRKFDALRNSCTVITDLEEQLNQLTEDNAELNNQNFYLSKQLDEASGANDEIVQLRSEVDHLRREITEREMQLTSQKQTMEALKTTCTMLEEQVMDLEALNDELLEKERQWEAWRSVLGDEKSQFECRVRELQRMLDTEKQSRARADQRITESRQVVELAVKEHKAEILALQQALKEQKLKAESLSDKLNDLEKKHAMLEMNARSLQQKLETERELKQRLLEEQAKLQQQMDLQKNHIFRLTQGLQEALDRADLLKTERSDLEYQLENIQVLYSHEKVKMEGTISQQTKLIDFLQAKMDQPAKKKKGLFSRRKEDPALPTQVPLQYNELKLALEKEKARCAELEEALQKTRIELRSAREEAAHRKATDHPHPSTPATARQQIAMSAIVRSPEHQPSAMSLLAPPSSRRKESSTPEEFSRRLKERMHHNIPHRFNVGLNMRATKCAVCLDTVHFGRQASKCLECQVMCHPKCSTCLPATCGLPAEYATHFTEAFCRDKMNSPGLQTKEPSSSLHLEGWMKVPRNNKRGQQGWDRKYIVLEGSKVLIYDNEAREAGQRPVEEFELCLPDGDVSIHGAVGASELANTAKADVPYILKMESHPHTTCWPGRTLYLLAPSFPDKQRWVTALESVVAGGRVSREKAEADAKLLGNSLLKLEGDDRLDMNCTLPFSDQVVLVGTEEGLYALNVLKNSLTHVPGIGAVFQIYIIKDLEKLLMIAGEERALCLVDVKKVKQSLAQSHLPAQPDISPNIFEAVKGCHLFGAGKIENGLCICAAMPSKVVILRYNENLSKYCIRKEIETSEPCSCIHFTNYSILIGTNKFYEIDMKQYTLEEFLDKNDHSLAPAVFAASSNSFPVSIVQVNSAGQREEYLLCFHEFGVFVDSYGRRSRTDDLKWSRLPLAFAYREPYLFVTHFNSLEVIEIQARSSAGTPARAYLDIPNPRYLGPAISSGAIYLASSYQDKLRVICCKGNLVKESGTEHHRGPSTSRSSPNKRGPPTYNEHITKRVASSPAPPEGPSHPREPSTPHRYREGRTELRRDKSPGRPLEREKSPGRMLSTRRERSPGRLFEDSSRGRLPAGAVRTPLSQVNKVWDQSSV

[3] = molecular target: Serine/threonine-protein kinase 10 (Homo sapiens) (UniProt O94804); assay: Selectivity interaction (Kinase panel (KiNativ target engagement assay in Jurkat cells)) EUB0001635a STK10; type: cell-based; details: Selectivity number of off-targets 0.0, Selectivity number of targets 233.0, Source Knowledge https://www.sciencedirect.com/science/article/pii/S2451945619300674?via%3Dihub, at 1 µM
[4] = molecular target: Protein polybromo-1 (Homo sapiens) (UniProt Q86U86); assay: Selectivity interaction (Bromodomain panel (DSF asssay)) EUB0000270b PBRM1
[5] = molecular target: Ribosomal protein S6 kinase alpha-1 (Homo sapiens, UniProt Q15418); assay: Selectivity interaction (ActivX KiNativ screen (kinase selectivity in THP-1 cell lysates)) EUB0000639a RPS6KA1; type: subcellular; details: lysate, at 5 µM
[6] = molecular target: Mitogen-activated protein kinase kinase kinase 20 (Homo sapiens) (UniProt Q9NYL2); assay: Selectivity interaction (ActivX KiNativ screen (kinase selectivity in THP-1 cell lysates)) EUB0000639a MAP3K20; type: subcellular; details: lysate
Sequence of Mitogen-activated protein kinase kinase kinase 20 (Homo sapiens) (Q9NYL2 2-800 limits assumed): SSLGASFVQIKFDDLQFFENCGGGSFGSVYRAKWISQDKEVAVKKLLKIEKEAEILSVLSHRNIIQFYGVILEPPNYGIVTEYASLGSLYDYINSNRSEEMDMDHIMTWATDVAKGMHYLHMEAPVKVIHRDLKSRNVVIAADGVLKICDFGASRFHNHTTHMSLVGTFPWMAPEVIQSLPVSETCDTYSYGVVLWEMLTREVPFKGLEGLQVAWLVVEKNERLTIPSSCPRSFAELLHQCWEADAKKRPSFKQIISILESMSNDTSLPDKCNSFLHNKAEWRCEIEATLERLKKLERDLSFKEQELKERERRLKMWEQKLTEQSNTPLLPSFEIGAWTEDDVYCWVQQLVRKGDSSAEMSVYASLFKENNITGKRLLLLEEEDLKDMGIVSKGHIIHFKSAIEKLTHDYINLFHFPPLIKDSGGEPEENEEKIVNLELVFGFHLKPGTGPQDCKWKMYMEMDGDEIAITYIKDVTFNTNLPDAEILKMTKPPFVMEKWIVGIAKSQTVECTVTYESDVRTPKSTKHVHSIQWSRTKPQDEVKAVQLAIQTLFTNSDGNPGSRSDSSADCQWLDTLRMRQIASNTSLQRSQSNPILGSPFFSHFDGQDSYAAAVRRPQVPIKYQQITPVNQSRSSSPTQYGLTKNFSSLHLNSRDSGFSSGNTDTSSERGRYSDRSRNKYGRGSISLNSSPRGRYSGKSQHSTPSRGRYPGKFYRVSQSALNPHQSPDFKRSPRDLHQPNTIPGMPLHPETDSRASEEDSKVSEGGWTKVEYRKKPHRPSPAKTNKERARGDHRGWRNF

[7] = molecular target: Mitogen-activated protein kinase kinase kinase 20 (Homo sapiens) (UniProt Q9NYL2); assay: Selectivity interaction (KinomeScan (DiscoverX)) EUB0000092b MAP3K20; details: at 10 µM
[8] = molecular target: Mitogen-activated protein kinase 9 (Homo sapiens, UniProt P45984); assay: Selectivity interaction (KinomeScan (DiscoverX)) EUB0000045b MAPK9
Sequence of Mitogen-activated protein kinase 9 (P45984 whole entry, looked up): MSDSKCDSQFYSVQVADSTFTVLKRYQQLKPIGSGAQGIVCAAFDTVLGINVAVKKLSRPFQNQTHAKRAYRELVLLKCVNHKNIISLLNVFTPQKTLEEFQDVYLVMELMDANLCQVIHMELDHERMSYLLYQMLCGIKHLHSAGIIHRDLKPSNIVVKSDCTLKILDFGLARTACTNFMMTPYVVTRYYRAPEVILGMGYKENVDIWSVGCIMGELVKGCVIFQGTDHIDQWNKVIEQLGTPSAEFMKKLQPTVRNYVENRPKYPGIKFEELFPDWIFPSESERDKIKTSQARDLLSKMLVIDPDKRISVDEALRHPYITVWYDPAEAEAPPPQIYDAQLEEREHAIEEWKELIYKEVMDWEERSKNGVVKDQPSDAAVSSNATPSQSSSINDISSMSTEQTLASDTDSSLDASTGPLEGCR

[9] = molecular target: T2, Dual specificity tyrosine-phosphorylation-regulated kinase 2 (Homo sapiens) (UniProt Q92630); assay: Selectivity interaction (KinomeScan (DiscoverX)) EUB0000655a DYRK2; details: at 10 µM
T2 sequence (whole entry): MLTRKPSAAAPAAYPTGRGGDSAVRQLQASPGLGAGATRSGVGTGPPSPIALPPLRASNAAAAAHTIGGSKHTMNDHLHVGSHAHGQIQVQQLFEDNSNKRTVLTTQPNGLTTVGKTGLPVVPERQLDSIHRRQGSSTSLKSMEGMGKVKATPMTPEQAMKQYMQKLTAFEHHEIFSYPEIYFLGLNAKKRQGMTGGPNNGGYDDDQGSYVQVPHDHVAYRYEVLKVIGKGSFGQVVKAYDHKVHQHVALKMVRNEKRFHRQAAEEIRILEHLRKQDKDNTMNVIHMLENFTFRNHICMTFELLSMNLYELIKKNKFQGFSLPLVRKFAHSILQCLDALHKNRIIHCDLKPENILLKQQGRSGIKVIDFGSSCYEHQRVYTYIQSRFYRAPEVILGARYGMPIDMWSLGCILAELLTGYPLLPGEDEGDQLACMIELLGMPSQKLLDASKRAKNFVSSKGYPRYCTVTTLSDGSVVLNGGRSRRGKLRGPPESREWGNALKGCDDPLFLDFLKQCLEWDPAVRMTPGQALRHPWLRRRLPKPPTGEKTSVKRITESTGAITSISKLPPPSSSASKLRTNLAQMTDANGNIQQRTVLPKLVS

[10] = molecular target: BDNF/NT-3 growth factors receptor (Homo sapiens) (UniProt Q16620); assay: Selectivity interaction (KinomeScan (DiscoverX)) EUB0000655a NTRK2; details: at 10 µM
[11] = molecular target: Tyrosine-protein kinase receptor UFO (Homo sapiens) (UniProt P30530); assay: Selectivity interaction (KinomeScan (DiscoverX)) EUB0000607a AXL; details: at 10 µM
Sequence of Tyrosine-protein kinase receptor UFO (Homo sapiens) (P30530 whole entry): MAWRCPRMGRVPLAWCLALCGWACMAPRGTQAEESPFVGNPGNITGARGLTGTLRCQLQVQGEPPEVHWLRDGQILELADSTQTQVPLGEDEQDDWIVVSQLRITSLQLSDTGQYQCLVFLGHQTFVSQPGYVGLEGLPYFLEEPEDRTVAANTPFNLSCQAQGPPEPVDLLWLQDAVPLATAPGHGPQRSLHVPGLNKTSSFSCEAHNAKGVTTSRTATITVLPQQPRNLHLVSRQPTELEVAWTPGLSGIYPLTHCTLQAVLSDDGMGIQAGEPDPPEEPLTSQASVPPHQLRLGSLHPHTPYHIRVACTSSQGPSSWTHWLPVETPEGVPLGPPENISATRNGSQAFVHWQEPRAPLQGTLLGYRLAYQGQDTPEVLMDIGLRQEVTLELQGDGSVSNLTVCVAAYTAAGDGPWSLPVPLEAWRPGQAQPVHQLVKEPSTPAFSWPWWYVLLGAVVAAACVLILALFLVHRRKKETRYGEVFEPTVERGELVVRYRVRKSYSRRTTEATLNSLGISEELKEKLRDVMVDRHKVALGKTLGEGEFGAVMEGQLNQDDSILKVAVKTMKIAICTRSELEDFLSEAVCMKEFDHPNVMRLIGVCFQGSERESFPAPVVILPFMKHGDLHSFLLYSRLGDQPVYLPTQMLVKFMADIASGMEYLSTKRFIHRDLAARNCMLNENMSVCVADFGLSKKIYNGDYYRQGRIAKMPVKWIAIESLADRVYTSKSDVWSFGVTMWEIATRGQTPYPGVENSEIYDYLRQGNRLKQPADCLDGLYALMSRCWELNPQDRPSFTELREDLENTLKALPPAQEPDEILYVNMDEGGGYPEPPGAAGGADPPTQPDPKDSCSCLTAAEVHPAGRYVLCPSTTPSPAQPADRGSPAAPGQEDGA

[12] = molecular target: Serine/threonine-protein kinase VRK2 (Homo sapiens) (UniProt Q86Y07); assay: Selectivity interaction (ProQinase) EUB0000171b VRK2
Sequence of Serine/threonine-protein kinase VRK2 (Homo sapiens) (Q86Y07 whole entry): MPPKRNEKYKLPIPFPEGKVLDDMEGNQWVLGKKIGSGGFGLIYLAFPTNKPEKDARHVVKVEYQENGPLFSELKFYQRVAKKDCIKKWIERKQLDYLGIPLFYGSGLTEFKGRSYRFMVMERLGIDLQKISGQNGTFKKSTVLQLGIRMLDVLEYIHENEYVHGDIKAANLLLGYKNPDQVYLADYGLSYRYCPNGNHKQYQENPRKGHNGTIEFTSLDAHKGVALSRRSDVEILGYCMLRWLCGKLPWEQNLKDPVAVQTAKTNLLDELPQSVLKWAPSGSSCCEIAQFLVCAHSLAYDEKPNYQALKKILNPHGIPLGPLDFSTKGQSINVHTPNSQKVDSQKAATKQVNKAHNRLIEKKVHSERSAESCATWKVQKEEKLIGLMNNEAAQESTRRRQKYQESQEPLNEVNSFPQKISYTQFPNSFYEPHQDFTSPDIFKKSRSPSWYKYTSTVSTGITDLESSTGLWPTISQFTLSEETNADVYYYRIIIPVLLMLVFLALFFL

COc1cc(Nc2nc(C)cc(-c3cnn4nc(OC)ccc34)n2)cc(C(F)(F)F)c1
% of control [1]: 80%

Nc1cnc(N2CCc3cc(S(=O)(=O)Nc4c(F)cc(Cl)cc4F)cc(N4CCCC4=O)c32)nc1 [TP-020n]
% of control [2]: 91%

C=CC(=O)Nc1ccc(C(=O)Nc2[nH]nc3c2CN(C(=O)N[C@H](CN(C)C)c2ccccc2)C3(C)C)cc1
% of engagement [3]: -2.2%

Cc1cc(CN)cc(C)c1-c1ncn(C)c1-c1cncn1C
dTM [4]: -0.44 K

CC[C@@H]1[C@H](F)C(=O)N[C@@H]1COc1nccc2cc(C(N)=O)c(OC)cc12 [ZIMLOVISERTIB]
% of inhibition [5]: 11.7%
% of inhibition ([6]; at 0.01 µM): -7.8%
% of inhibition ([6]; at 0.04 µM): -3.3%
% of inhibition ([6]; at 0.2 µM): 9.5%
% of inhibition ([6]; at 1 µM): 12.2%
% of inhibition ([6]; at 5 µM): -6.6%

CCC(=O)N1CCN(c2ccc(-n3c(=O)ccc4cnc5ccc(-c6cnc7ccccc7c6)cc5c43)cc2C(F)(F)F)CC1
% of control [7]: 22%

C=CC(=O)Nc1cc(-n2c(=O)ccc3cnc4ccc(-c5ccc(NS(C)(=O)=O)cc5)cc4c32)ccc1C
% of control ([8]; at 1 µM): 100%
% of control ([8]; at 10 µM): 24%

CN(C)CCOc1ccc(-c2nc(-c3ccncc3)c(-c3ccc4c(c3)CC/C4=N\O)[nH]2)cc1
% of control [9]: 98%
% of control [10]: 75%

CNC(=O)Nc1ccc(-c2nc(N3CC4CCC(C3)O4)c3cnn(C4CCC5(CC4)OCCO5)c3n2)cc1
% of control [11]: 88%

C=CC(=O)Nc1cccc(C(=O)Nc2ccc(Nc3cc(-c4[nH]c(SC)nc4C)ccn3)cc2)c1
% of control ([12]; at 1 µM): 97%
% of control ([12]; at 5 µM): 83%
